System: PDAC cells
Assay: BrdU incorporation assay
Assay type: cell-based
Settings: within 8 hours
Protocol: Finally, we sought to determine how JTE-607-mediated depletion of RD histones led to defects in cell viability. As RD histones are required for cell cycle progression, we assessed the effects of JTE-607 on cell cycle distribution. […] In contrast, JTE-607 arrested Panc1 and MiaPaCa2 PDAC cells in S-phase of the cell cycle within 24 hours (FIGS. 7A and 7B). To corroborate the impact of CPSF3 knockdown on cell cycle, CPSF3 was transiently knocked-down with siRNA in Panc1 and HPNE cells (FIGS. 13D, 7C). CPSF3 knockdown induced cell cycle arrest in Panc1 cells with minimal effect on HPNE cells (FIGS. 7D and 7E). However, unlike CPSF3 inhibition-induced cell cycle arrest at S-phase, CPSF3 knockdown cells arrested at G2. […] To more specifically investigate the timing and extent of S-phase arrest upon JTE-607 treatment, BrdU incorporation was examined in a time-dependent manner (FIG. 7F). […] This is in support of previous reports where histone defects slow the progression of cells during S-phase. Therefore, JTE-607 destabilizes chromatin and attenuates PDAC cell proliferation through S-phase cell cycle arrest.
BrdU incorporation assay. […] Cells were analyzed by flow cytometry immediately and a compensation step was performed. Data were analyzed by FCS Express software (v7.06.0015).

CCOC(=O)[C@H](Cc1ccccc1)NC(=O)c1cc(Cl)c(OCCN2CCN(C)CC2)c(Cl)c1O [JTE-607]
cell cycle arrest phase (BrdU incorporation): early to mid S-phase

Reference: US20230355613A1, “METHODS FOR TREATING PANCREATIC DUCTAL ADENOCARCINOMA” (HEALTH RESEARCH, INC., priority 2022, published 2023)
